Source: ChEMBL document CHEMBL1150318, “Discovery of a novel, orally active himbacine-based thrombin receptor antagonist (SCH 530348) with potent antiplatelet activity” (J Med Chem, 2008)
Active and inactive are the calls of the source. The calls are words filed in the database; no cut-off is given here.

Legend:
[1] = target: T1, Proteinase-activated receptor 1 (Homo sapiens, UniProt P25116); assay: Displacement of [3H]haTRAP from PAR1 in human platelets
T1 sequence (P25116 whole entry): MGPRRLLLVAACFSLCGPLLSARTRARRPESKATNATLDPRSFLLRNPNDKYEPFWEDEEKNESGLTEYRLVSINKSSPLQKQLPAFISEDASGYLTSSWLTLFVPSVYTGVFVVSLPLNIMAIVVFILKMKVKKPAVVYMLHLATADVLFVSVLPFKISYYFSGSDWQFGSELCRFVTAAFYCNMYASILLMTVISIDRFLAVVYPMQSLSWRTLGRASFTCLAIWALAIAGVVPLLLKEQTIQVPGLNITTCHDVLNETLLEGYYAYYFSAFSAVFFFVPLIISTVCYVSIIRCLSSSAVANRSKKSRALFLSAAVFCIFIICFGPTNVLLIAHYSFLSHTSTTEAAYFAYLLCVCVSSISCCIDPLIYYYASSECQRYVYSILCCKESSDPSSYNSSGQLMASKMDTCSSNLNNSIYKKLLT

Platelet [2] = assay: Ex vivo inhibition of haTRAP-induced platelet aggregation in cynomolgus monkey at 0.5 mg/kg, po by impedance aggregometry; assay type: functional, organism-based; parameters: dose 0.5 mg/kg; details: Macaca fascicularis
Platelet [3] = assay: Ex vivo inhibition of haTRAP-induced platelet aggregation in cynomolgus monkey at 0.1 mg/kg, po after 24 hrs by impedance aggregometry; assay type: functional; details: Macaca fascicularis
[4] = AUC (0 to 24 hrs) in cynomolgus monkey at 0.1 mg/kg, po after 24 hrs; assay type: ADME, organism-based, Macaca fascicularis; parameters: time < 24 hr, dose 0.1 mg/kg, route oral; details: plasma
[5] = Cmax in cynomolgus monkey at 0.1 mg/kg, po after 24 hrs; assay type: ADME, organism-based, Macaca fascicularis; parameters: dose 0.1 mg/kg, route oral; details: in vivo
Platelet [6] = assay: Ex vivo inhibition of haTRAP-induced platelet aggregation in cynomolgus monkey at 1 mg/kg, po after 24 hrs by impedance aggregometry; assay type: functional; details: Macaca fascicularis
[7] = AUC (0 to 24 hrs) in cynomolgus monkey at 1 mg/kg, po after 24 hrs; assay type: ADME, organism-based, Macaca fascicularis; parameters: time < 24 hr, dose 1 mg/kg, route oral; details: plasma
[8] = Cmax in cynomolgus monkey at 1 mg/kg, po after 24 hrs; assay type: ADME, organism-based, Macaca fascicularis; parameters: dose 1 mg/kg, route oral; details: in vivo
Platelet [9] = assay: Ex vivo inhibition of haTRAP-induced platelet aggregation in cynomolgus monkey at 1 mg/kg, po after 6 hrs by impedance aggregometry; assay type: functional; details: Macaca fascicularis

| Ki [1] [nM] | SMILES | other results |
| --- | --- | --- |
| 4.1 | CCOC(=O)N(C)[C@@H]1CC[C@@H]2[C@@H](C1)C[C@H]1C(=O)O[C@H](C)[C@H]1[C@H]2/C=C/c1ccc(-c2cccc(F)c2)cn1 | Activity (Platelet [2]): inactive |
| 10 | C[C@H]1OC(=O)[C@@H]2C[C@@H]3C[C@H](NS(C)(=O)=O)CC[C@H]3[C@H](/C=C/c3ccc(-c4cccc(C(F)(F)F)c4)cn3)[C@H]12 | – |
| 11 | CCOC(=O)N[C@@H]1CC[C@@H]2[C@@H](C1)C[C@H]1C(=O)O[C@H](C)[C@H]1[C@H]2/C=C/c1ccc(-c2ccccc2F)cn1 | inhibition in vivo at 0.1 mg/kg (Platelet [3]): 80%; AUC(0-t) at 24 h [4]: 0.2 µM·h; Cmax [5]: 24 nM |
| 6.5 | C[C@H]1OC(=O)[C@@H]2C[C@@H]3C[C@H](NC(=O)C4CC4)CC[C@H]3[C@H](/C=C/c3ccc(-c4cccc(F)c4)cn3)[C@H]12 | inhibition in vivo at 1 mg/kg (Platelet [6]): 100%; AUC(0-t) at 24 h [7]: 5.53 µM·h; Cmax [8]: 390 nM |
| 5.9 | CCOC(=O)N[C@@H]1CC[C@@H]2[C@@H](C1)C[C@H]1C(=O)O[C@H](C)[C@H]1[C@H]2/C=C/c1ccc(-c2cc(F)cc(F)c2)cn1 | – |
| 11 | CCOC(=O)N[C@@H]1CC[C@@H]2[C@@H](C1)C[C@H]1C(=O)O[C@H](C)[C@H]1[C@H]2/C=C/c1ccc(-c2cccc(Cl)c2)cn1 | – |
| 6.2 | CC(=O)N[C@@H]1CC[C@@H]2[C@@H](C1)C[C@H]1C(=O)O[C@H](C)[C@H]1[C@H]2/C=C/c1ccc(-c2cccc(F)c2)cn1 | – |
| 6.1 | COC(=O)N[C@@H]1CC[C@@H]2[C@@H](C1)C[C@H]1C(=O)O[C@H](C)[C@H]1[C@H]2/C=C/c1ccc(-c2cccc(F)c2)cn1 | – |
| 1.8 | CCOC(=O)N[C@@H]1CC[C@@H]2[C@@H](C1)C[C@H]1C(=O)O[C@H](C)[C@H]1[C@H]2/C=C/c1ccc(-c2cccc(C#N)c2)cn1 | inhibition in vivo at 0.1 mg/kg (Platelet [3]): 80%; AUC(0-t) at 24 h [4]: 2.08 µM·h; Cmax [5]: 200 nM |
| 17 | CCCOC(=O)N[C@@H]1CC[C@@H]2[C@@H](C1)C[C@H]1C(=O)O[C@H](C)[C@H]1[C@H]2/C=C/c1ccc(-c2cccc(F)c2)cn1 | – |
| 11 | CCOC(=O)N[C@@H]1CC[C@@H]2[C@@H](C1)C[C@H]1C(=O)O[C@H](C)[C@H]1[C@H]2/C=C/c1ccc(-c2cccc(C)c2F)cn1 | inhibition in vivo at 1 mg/kg (Platelet [6]): 100%; AUC(0-t) at 24 h [7]: 0.13 µM·h; Cmax [8]: 20 nM |
| 30 | CC(=O)N[C@@H]1CC[C@@H]2[C@@H](C1)C[C@H]1C(=O)O[C@H](C)[C@H]1[C@H]2/C=C/c1ccc(-c2cccc(C(F)(F)F)c2)cn1 | – |
| 44 | C[C@H]1OC(=O)[C@@H]2C[C@@H]3C[C@H](NC(=O)OC(C)(C)C)CC[C@H]3[C@H](/C=C/c3ccc(-c4cccc(C#N)c4)cn3)[C@H]12 | – |
| 11 | C[C@H]1OC(=O)[C@@H]2C[C@@H]3C[C@H](NS(C)(=O)=O)CC[C@H]3[C@H](/C=C/c3ccc(-c4cccc(F)c4)cn3)[C@H]12 | inhibition in vivo at 1 mg/kg (Platelet [9]): < 40% |
| 5.9 | CCOC(=O)N[C@@H]1CC[C@@H]2[C@@H](C1)C[C@H]1C(=O)O[C@H](C)[C@H]1[C@H]2/C=C/c1ccc(-c2cccc(OC)c2)cn1 | – |
| 89 | CCCN(C(=O)OCC)[C@@H]1CC[C@@H]2[C@@H](C1)C[C@H]1C(=O)O[C@H](C)[C@H]1[C@H]2/C=C/c1ccc(-c2cccc(F)c2)cn1 | – |
| 367 | CCOC(=O)N[C@@H]1CC[C@@H]2[C@@H](C1)C[C@H]1C(=O)O[C@H](C)[C@H]1[C@H]2/C=C/c1ccc(-c2cccc(C(N)=O)c2)cn1 | – |
| 4.4 | CNC(=O)N[C@@H]1CC[C@@H]2[C@@H](C1)C[C@H]1C(=O)O[C@H](C)[C@H]1[C@H]2/C=C/c1ccc(-c2cccc(F)c2)cn1 | inhibition in vivo at 1 mg/kg (Platelet [6]): 55%; AUC(0-t) at 24 h [7]: 2.63 µM·h; Cmax [8]: 260 nM |
| 20 | C[C@H]1OC(=O)[C@@H]2C[C@@H]3C[C@H](N)CC[C@H]3[C@H](/C=C/c3ccc(-c4cccc(F)c4)cn3)[C@H]12 | inhibition in vivo at 1 mg/kg (Platelet [9]): < 40% |
| 4.8 | CCNC(=O)N[C@@H]1CC[C@@H]2[C@@H](C1)C[C@H]1C(=O)O[C@H](C)[C@H]1[C@H]2/C=C/c1ccc(-c2cccc(F)c2)cn1 | – |
| 3.7 | CCOC(=O)N(C)[C@@H]1CC[C@@H]2[C@@H](C1)C[C@H]1C(=O)O[C@H](C)[C@H]1[C@H]2/C=C/c1ccc(-c2cccc(C(F)(F)F)c2)cn1 | – |
| 6.4 | CCC(=O)N[C@@H]1CC[C@@H]2[C@@H](C1)C[C@H]1C(=O)O[C@H](C)[C@H]1[C@H]2/C=C/c1ccc(-c2cccc(F)c2)cn1 | inhibition in vivo at 1 mg/kg (Platelet [6]): 100%; AUC(0-t) at 24 h [7]: 11.4 µM·h; Cmax [8]: 750 nM |
